Measured values reported in ChEMBL document CHEMBL5346934 (J Med Chem, 2023).
Values after ≈ are worked out from the molar mass of the structure shown.

What was measured:
Cowpox virus [1] = assay: Antiviral activity against Cowpox virus infected in Vero cells measured after 4 days by colorimetric assay; assay type: functional, organism-based; settings: 96 h
Vaccinia virus [2] = assay: Antiviral activity against Vaccinia virus infected in African green monkey Vero cells incubated for 24 hrs; assay type: functional, organism-based; settings: Orthopoxvirus vaccinia
Vaccinia virus [3] = assay: Antiviral activity against Vaccinia virus Copenhagen infected in human HFF cells assessed as assessed as reduction in virus-induced cytopathic effect incubated for 7 days by microscopic analysis; assay type: functional, organism-based; settings: Orthopoxvirus vaccinia, 168 h
Vaccinia virus [4] = assay: Antiviral activity against Vaccinia virus Copenhagen infected in HFF cells measured after 3 days by colorimetric assay; assay type: functional, organism-based; settings: Orthopoxvirus vaccinia, 72 h
Vaccinia virus [5] = assay: Antiviral activity against wild type Vaccinia virus infected in African monkey Vero cells measured after 5 days by MTT assay; assay type: functional, organism-based; settings: Orthopoxvirus vaccinia, 120 h
Vaccinia virus [6] = assay: Antiviral activity against Vaccinia virus IHD-J infected in BSC40 cells assessed as reduction in plaque formation measured after 72 hrs by crystal violet staining based analysis; assay type: functional, organism-based; settings: Orthopoxvirus vaccinia, BSC-40, 72 h
Vaccinia virus [7] = assay: Antiviral activity against Vaccinia virus infected in human HFF cells; assay type: functional, organism-based; settings: Orthopoxvirus vaccinia
Human alphaherpesvirus 2 = assay: Antiviral activity against Herpes simplex virus 2; assay type: functional, organism-based
Vaccinia virus [8] = assay: Antiviral activity against Vaccinia virus infected in African green monkey Vero cells assessed as reduction virus induced cytopathic effect incubated for 24 hrs by MTT assay; assay type: functional, organism-based; settings: Orthopoxvirus vaccinia
Variola virus = assay: Antiviral activity against Variola virus 7124 infected in monkey LLC-MK2 cells; assay type: functional, organism-based; settings: Variola virus, 7124, LLC-MK2
Vaccinia virus [9] = assay: Antiviral activity against Vaccinia virus Copenhagen infected in human HFF cells assessed as reduction in viral replication measured after 3 days; assay type: functional, organism-based; settings: Orthopoxvirus vaccinia, 72 h
Vaccinia virus [10] = assay: Antiviral activity against Cowpox virus Brighton infected in human HFF cells assessed as reduction in viral replication measured after 3 days; assay type: functional, organism-based; settings: Orthopoxvirus vaccinia, 72 h
Vaccinia virus [11] = assay: Antiviral activity against Vaccinia virus infected in African green monkey Vero cells; assay type: functional, organism-based; settings: Orthopoxvirus vaccinia
Ectromelia virus = assay: Antiviral activity against ectromelia virus K-1 infected in Vero cells measured after 4 days by colorimetric assay; assay type: functional, organism-based; settings: K-1, Vero, 96 h
Monkeypox virus = assay: Antiviral activity against Monkeypox virus V79-1-005 infected in Vero cells measured after 4 days by colorimetric assay; assay type: functional, organism-based; settings: V79-1-005, Vero, 96 h
Vaccinia virus [12] = assay: Antiviral activity against Vaccinia virus infected in Vero cells measured after 4 days by colorimetric assay; assay type: functional, organism-based; settings: Orthopoxvirus vaccinia, 96 h
Vaccinia virus [13] = assay: Antiviral activity against Vaccinia virus Copenhagen infected in African green monkey Vero cells measured after 4 days by colorimetric assay; assay type: functional, organism-based; settings: Orthopoxvirus vaccinia, 96 h
Cowpox virus [14] = assay: Antiviral activity against Cowpox virus Grishak infected in African green monkey Vero cells measured after 4 days by colorimetric assay; assay type: functional, organism-based; settings: 96 h
Vaccinia virus [15] = assay: Antiviral activity against Vaccinia virus infected in human HEL cells; assay type: functional, organism-based; settings: Orthopoxvirus vaccinia
HEL = assay: Cytotoxicity against human HEL cells assessed as reduction in cell growth; assay type: functional
Cowpox virus [16] = assay: Antiviral activity against Cowpox virus Brighton infected in Vero cells measured after 4 days by colorimetric assay; assay type: functional, organism-based; settings: 96 h
Vaccinia virus [17] = assay: Antiviral activity against Vaccinia virus Lister infected in human HEL cells assessed as virus-induced cytopathic effect measured after 5 days by microscopic analysis; assay type: functional, organism-based; settings: Orthopoxvirus vaccinia, 120 h
Camelpox virus = assay: Antiviral activity against Camelpox virus infected in human HEL cells assessed as reduction in virus-induced cytopathic effect measured after 5 days by microscopic analysis; assay type: functional, organism-based; settings: 120 h

Structure (SMILES): Nc1ncnc2c1ncn2COC(CO)CO
- EC50 (Cowpox virus [1]): 3.5 µM

Structure (SMILES): CCNC(=O)OCC12CC3CC(CC(C3)C1)C2
- EC50 (Vaccinia virus [2]): 14.8 µM

Structure (SMILES): Oc1ccc(NCc2ccccc2OCc2ccccc2)cc1
- EC50 (Vaccinia virus [3]): 7.1 µM

Structure (SMILES): Fc1ccc(Nc2c(-c3ccccn3)nc3ccc(Cl)cn23)cc1
- EC50 (Vaccinia virus [3]): 6.5 µM

Structure (SMILES): O=c1[nH]c(=O)n([C@H]2C[C@H](O)[C@@H](CO)S2)cc1I
- EC50 (Vaccinia virus [4]): 500 nM
- EC50 (Vaccinia virus [5]): 50 nM

Structure (SMILES): O=C1c2ccccc2-c2onc3c2C1C(NC1CCCCC1)C=C3NCCO (stereo not given)
- EC50 (Vaccinia virus [3]): 8.4 µM

Structure (SMILES): CCC(=O)N1CC(=O)Nc2ccc(Br)cc2C1c1ccccc1 (stereo not given)
- EC50 (Vaccinia virus [6]): 3000 nM

Structure (SMILES): NC(CSC1(c2ccc(Cl)cc2)c2ccccc2-c2ccccc21)C(=O)O (stereo not given)
- IC50 (Vaccinia virus [7]): 47.5 µM
- IC50 (Human alphaherpesvirus 2): 34.8 µM

Structure (SMILES): CCCCCCCCCCCCCCCCCCOCCOP(=O)(O)CO[C@H](CO)Cn1ccc(N)nc1=O
- EC50 (Vaccinia virus [8]): 0.2 µM

Structure (SMILES): Cc1ccc(C2Nc3ccccc3C(=O)N2c2ccccc2)s1 (stereo not given)
- EC50 (Vaccinia virus [6]): 2200 nM

Structure (SMILES): Nc1nc(=O)n([C@@H]2C=C(CO)[C@@H](O)[C@H]2O)cc1F
- EC50 (Variola virus): 510 nM

Structure (SMILES): NC(=S)N/N=C1\C(=O)Nc2ccccc21
- EC50 (Vaccinia virus [9]): 14 µM
- EC50 (Vaccinia virus [10]): 60 µM

Structure (SMILES): Nc1cc(OC[C@H](CO)OCP(=O)(O)O)nc(N)n1
- EC50 (Cowpox virus [1]): 46.2 µM

Structure (SMILES): Cc1nn(C)c(C)c1CCOc1c(-c2ccc3c(c2)c(CN(C)C)nn3C)ccc(F)c1F
- EC50 (Vaccinia virus [6]): 130 nM

Structure (SMILES): CC1(C)[C@H]2CC[C@]1(C)[C@H](OC(=O)CCCN1CCOCC1)C2
- IC50 (Vaccinia virus [11]): 7.95 µM

Structure (SMILES): CC1(C)[C@@H]2CC[C@@]1(C)[C@H](NC(=O)CCN1CCOCC1)C2
- IC50 (Vaccinia virus [11]): 7.47 µM

Structure (SMILES): O=C(NNC(=O)C1C2C=CC(C3CC23)C1C(=O)O)c1ccc(C(F)(F)F)cc1 (stereo not given)
- EC50 (Ectromelia virus): 0.011 µg/mL (≈ 0.0279 µM)
- EC50 (Monkeypox virus): 0.013 µg/mL (≈ 0.033 µM)
- EC50 (Vaccinia virus [12]): 1 ng/mL (≈ 0.00254 µM)

Structure (SMILES): CC1(C)[C@@H]2CC[C@@]1(C)[C@@H](NC(=O)C1CCCCC1)C2
- IC50 (Ectromelia virus): 6.2 µM
- IC50 (Vaccinia virus [13]): 1400 nM
- IC50 (Cowpox virus [14]): 14.4 µM

Structure (SMILES): O=C1N(Nc2ccc([N+](=O)[O-])cc2)C(=O)C23C4C=CC5C4C4C(C=CC42)C153
- IC50 (Vaccinia virus [15]): 3000 nM
- CC50 (HEL): > 100 µM

Structure (SMILES): O=C1N(Nc2ccc(Cl)c(Cl)c2)C(=O)C23C4C=CC5C4C4C(C=CC42)C153
- IC50 (Vaccinia virus [15]): 480 nM
- CC50 (HEL): > 100 µM

Structure (SMILES): O=C1N(Nc2ccc(Br)cc2)C(=O)C23C4C=CC5C4C4C(C=CC42)C153
- IC50 (Vaccinia virus [15]): 7300 nM
- CC50 (HEL): > 100 µM

Structure (SMILES): CC1(C)[C@@H]2CC[C@@]1(C)[C@@H](NC(=O)c1ccc(Br)cc1)C2
- IC50 (Ectromelia virus): 0.7 µM
- IC50 (Vaccinia virus [13]): 360 nM
- IC50 (Cowpox virus [14]): 1.9 µM

Structure (SMILES): CCc1ccc(S(=O)(=O)c2ccc(Cl)cc2)cc1
- EC50 (Vaccinia virus [2]): 18.6 µM

Structure (SMILES): O=C1N(Nc2ccc(Cl)c(Br)c2)C(=O)C23C4C=CC5C4C4C(C=CC42)C153
- IC50 (Vaccinia virus [15]): 160 nM
- CC50 (HEL): > 100 µM

Structure (SMILES): Nc1ccn(C[C@@H]2COP(=O)(O)CO2)c(=O)n1
- EC50 (Vaccinia virus [8]): 50.6 µM
- EC50 (Cowpox virus [1]): 48.3 µM

Structure (SMILES): Cc1cn([C@@]2(C)C[C@H](O)[C@@H](CO)S2)c(=O)[nH]c1=O
- EC50 (Vaccinia virus [4]): 480 nM
- EC50 (Vaccinia virus [5]): 800 nM
- EC50 (Cowpox virus [16]): 480 nM
- EC50 (Vaccinia virus [17]): 410 nM
- EC50 (Camelpox virus): 790 nM

Structure (SMILES): CC1(C)[C@@H]2CC[C@@]1(C)[C@@H](NC(=O)c1ccc([N+](=O)[O-])cc1)C2
- IC50 (Ectromelia virus): 0.41 µM
- IC50 (Vaccinia virus [13]): 30 nM
- IC50 (Cowpox virus [14]): 1.4 µM

Structure (SMILES): CC1(C)[C@@H]2CC[C@@]1(C)[C@H](NC(=O)c1ccc([N+](=O)[O-])cc1)C2
- IC50 (Ectromelia virus): 8 µM
- IC50 (Vaccinia virus [13]): 900 nM
- IC50 (Cowpox virus [14]): 18.4 µM

Structure (SMILES): O=C1N(Nc2ccc(Cl)c(C(F)(F)F)c2)C(=O)C23C4C=CC5C4C4C(C=CC42)C153
- IC50 (Vaccinia virus [15]): 800 nM
- CC50 (HEL): > 100 µM

Structure (SMILES): CCOc1ccc2c(c1)[C@H]1C=CC[C@H]1[C@H](c1ccccc1Cl)N2
- EC50 (Vaccinia virus [3]): 13.9 µM

Structure (SMILES): CC(=O)C1=C2C=CCCN2C(=O)NC1c1cccc(F)c1 (stereo not given)
- IC50 (Vaccinia virus [8]): 100 nM

Structure (SMILES): CC1(C)[C@@H]2CC[C@@]1(C)[C@@H](NC(=O)c1ccc(C(F)(F)F)cc1)C2
- IC50 (Ectromelia virus): 6.9 µM
- IC50 (Vaccinia virus [13]): 600 nM
- IC50 (Cowpox virus [14]): 6.1 µM

Structure (SMILES): CC1(C)[C@@H]2CC[C@@]1(C)[C@H](NC(=O)c1ccc(Cl)cc1)C2
- IC50 (Ectromelia virus): 3.3 µM
- IC50 (Vaccinia virus [13]): 600 nM
- IC50 (Cowpox virus [14]): 9.2 µM
